In the CheMixHub viscosity set:

Experiment: xn = mol fraction of the nth substance listed

Nc1ccccc1[N+](=O)[O-] + ClC(Cl)(Cl)Cl
viscosity [mPa·s], 101 kPa
Settings | 303.15 K | 308.15 K | 313.15 K | 318.15 K | 323.15 K
x1 = 0.02174 | 0.8952 | 0.8298 | 0.7841 | 0.7321 | 0.6886
x1 = 0.08489 | – | 1 | 0.9361 | 0.874 | 0.8093

C1CCCC1 + CCCO
101.3 kPa
Settings | viscosity [mPa·s]
298.15 K, x1 = 0.0126 | 1.899
298.15 K, x1 = 0.0784 | 1.708
298.15 K, x1 = 0.1149 | 1.602
298.15 K, x1 = 0.1574 | 1.49
298.15 K, x1 = 0.1979 | 1.385
298.15 K, x1 = 0.2531 | 1.254
298.15 K, x1 = 0.289 | 1.17
298.15 K, x1 = 0.3309 | 1.085
298.15 K, x1 = 0.3663 | 1.017
298.15 K, x1 = 0.3847 | 0.982
298.15 K, x1 = 0.3986 | 0.959
298.15 K, x1 = 0.4161 | 0.924
298.15 K, x1 = 0.4387 | 0.888
298.15 K, x1 = 0.4706 | 0.839
298.15 K, x1 = 0.4885 | 0.807
298.15 K, x1 = 0.5064 | 0.781
298.15 K, x1 = 0.5132 | 0.772
298.15 K, x1 = 0.5396 | 0.739
298.15 K, x1 = 0.5459 | 0.726
298.15 K, x1 = 0.557 | 0.709
298.15 K, x1 = 0.563 | 0.703
298.15 K, x1 = 0.5899 | 0.673
298.15 K, x1 = 0.6188 | 0.639
298.15 K, x1 = 0.6413 | 0.615
298.15 K, x1 = 0.6734 | 0.587
298.15 K, x1 = 0.7116 | 0.552
298.15 K, x1 = 0.7421 | 0.529
298.15 K, x1 = 0.7853 | 0.497
298.15 K, x1 = 0.8171 | 0.478
298.15 K, x1 = 0.8537 | 0.458
298.15 K, x1 = 0.9793 | 0.412
308.15 K, x1 = 0.0566 | 1.511
308.15 K, x1 = 0.0958 | 1.374
308.15 K, x1 = 0.1491 | 1.257
308.15 K, x1 = 0.1968 | 1.105
308.15 K, x1 = 0.2217 | 0.997
308.15 K, x1 = 0.2344 | 0.927
308.15 K, x1 = 0.2399 | 0.886
308.15 K, x1 = 0.2558 | 0.874
308.15 K, x1 = 0.2708 | 0.851
308.15 K, x1 = 0.2943 | 0.815
308.15 K, x1 = 0.3274 | 0.772
308.15 K, x1 = 0.3677 | 0.719
308.15 K, x1 = 0.4171 | 0.659
308.15 K, x1 = 0.4901 | 0.582
308.15 K, x1 = 0.5698 | 0.516
308.15 K, x1 = 0.6573 | 0.457
308.15 K, x1 = 0.7599 | 0.415
308.15 K, x1 = 0.8996 | 0.392
318.15 K, x1 = 0.0747 | 1.139
318.15 K, x1 = 0.1126 | 1.074
318.15 K, x1 = 0.2293 | 0.876
318.15 K, x1 = 0.2845 | 0.769
318.15 K, x1 = 0.3533 | 0.654
318.15 K, x1 = 0.4 | 0.597
318.15 K, x1 = 0.4414 | 0.539
318.15 K, x1 = 0.4892 | 0.491
318.15 K, x1 = 0.4949 | 0.484
318.15 K, x1 = 0.5432 | 0.445
318.15 K, x1 = 0.5458 | 0.443
318.15 K, x1 = 0.5813 | 0.429
318.15 K, x1 = 0.6285 | 0.412
318.15 K, x1 = 0.6942 | 0.407
318.15 K, x1 = 0.7867 | 0.402
318.15 K, x1 = 0.8912 | 0.393

C1CCCC1 + C1CCCCC1
303.15 K, 101 kPa
Settings | viscosity [mPa·s]
x1 = 0.1022 | 0.7604
x1 = 0.2029 | 0.6988
x1 = 0.2998 | 0.6457
x1 = 0.3944 | 0.599
x1 = 0.4949 | 0.5545
x1 = 0.5917 | 0.5159
x1 = 0.6949 | 0.4788
x1 = 0.7843 | 0.4494
x1 = 0.8966 | 0.4147

OCc1ccccc1 + O=[N+]([O-])c1ccccc1
303.15 K, 101 kPa
Settings | viscosity [mPa·s]
x1 = 0.1725 | 1.292
x1 = 0.2352 | 1.292
x1 = 0.3083 | 1.389
x1 = 0.4517 | 1.657
x1 = 0.5919 | 2.015
x1 = 0.6592 | 2.234
x1 = 0.7706 | 2.658
x1 = 0.8314 | 2.956
x1 = 0.9106 | 3.486

COC(=O)CCCCC(=O)OC + C1CCOC1
viscosity [mPa·s], 101 kPa
Settings | 293.15 K | 298.15 K | 303.15 K | 308.15 K | 313.15 K | 318.15 K | 323.15 K
x1 = 0.1 | 0.6562 | 0.6229 | 0.5909 | 0.5598 | 0.5294 | 0.4989 | 0.4706
x1 = 0.2 | 0.8354 | 0.7852 | 0.7403 | 0.6982 | 0.6588 | 0.6205 | 0.5877
x1 = 0.3 | 1.042 | 0.9731 | 0.9111 | 0.8539 | 0.8024 | 0.7543 | 0.7132
x1 = 0.3994 | 1.277 | 1.183 | 1.1 | 1.026 | 0.958 | 0.906 | 0.8459
x1 = 0.5001 | 1.545 | 1.42 | 1.311 | 1.217 | 1.134 | 1.063 | 0.9929
x1 = 0.5909 | 1.811 | 1.652 | 1.517 | 1.4 | 1.299 | 1.206 | 1.132
x1 = 0.5999 | 1.838 | 1.676 | 1.541 | 1.421 | 1.315 | 1.221 | 1.146
x1 = 0.7003 | 2.163 | 1.956 | 1.78 | 1.63 | 1.506 | 1.382 | 1.302
x1 = 0.7999 | 2.514 | 2.255 | 2.042 | 1.858 | 1.7 | 1.556 | 1.458
x1 = 0.8937 | 2.866 | 2.555 | 2.298 | 2.08 | 1.892 | 1.731 | 1.609
x1 = 0.8996 | 2.888 | 2.574 | 2.314 | 2.095 | 1.905 | 1.742 | 1.619

C1CCCC1 + CC(C)O
101 kPa
Settings | viscosity [mPa·s]
298.15 K, x1 = 0.0779 | 1.686
298.15 K, x1 = 0.1506 | 1.405
298.15 K, x1 = 0.1861 | 1.302
298.15 K, x1 = 0.2303 | 1.179
298.15 K, x1 = 0.26 | 1.129
298.15 K, x1 = 0.3112 | 1.009
298.15 K, x1 = 0.3879 | 0.8567
298.15 K, x1 = 0.4568 | 0.7573
298.15 K, x1 = 0.5489 | 0.6423
298.15 K, x1 = 0.6378 | 0.5548
298.15 K, x1 = 0.7196 | 0.5314
298.15 K, x1 = 0.8237 | 0.455
298.15 K, x1 = 0.9124 | 0.4265
308.15 K, x1 = 0.0365 | 1.373
308.15 K, x1 = 0.081 | 1.28
308.15 K, x1 = 0.1332 | 1.125
308.15 K, x1 = 0.1521 | 1.101
308.15 K, x1 = 0.1757 | 1.034
308.15 K, x1 = 0.1856 | 1.015
308.15 K, x1 = 0.2382 | 0.9575
308.15 K, x1 = 0.2694 | 0.9099
308.15 K, x1 = 0.3483 | 0.7902
308.15 K, x1 = 0.3863 | 0.7261
308.15 K, x1 = 0.4288 | 0.6806
308.15 K, x1 = 0.478 | 0.6312
308.15 K, x1 = 0.5296 | 0.5689
308.15 K, x1 = 0.5891 | 0.5186
308.15 K, x1 = 0.6269 | 0.4877
308.15 K, x1 = 0.6889 | 0.4468
308.15 K, x1 = 0.7 | 0.4437
308.15 K, x1 = 0.7248 | 0.4309
308.15 K, x1 = 0.7619 | 0.4179
308.15 K, x1 = 0.98 | 0.3745
308.15 K, x2 = 0.0108 | 0.3641

CCC(=O)CC + COC(=O)c1ccccc1
viscosity [mPa·s], 101 kPa
Settings | x2 = 0.0869 | x2 = 0.176 | x2 = 0.2669 | x2 = 0.3636 | x2 = 0.4616 | x2 = 0.5586 | x2 = 0.6631 | x2 = 0.7718 | x2 = 0.8792
303.15 K | 0.486 | 0.557 | 0.634 | 0.722 | 0.822 | 0.932 | 1.07 | 1.235 | 1.422
313.15 K | 0.43 | 0.485 | 0.548 | 0.619 | 0.7 | 0.79 | 0.896 | 1.025 | 1.169
